Assay results published in US9586945B2, “Aminochromane, aminothiochromane and amino-1,2,3,4-tetrahydroquinoline derivatives, pharmaceutical compositions containing them, and their use in therapy” (AbbVie Deutschland GmbH & Co. KG, priority 2013, dated 2017).
pKi: −log10 of the molar value.

Assays:
human GlyT1c transporter = human GlyT1c transporter (Homo sapiens (Human), UniProt P48067); test: Radioligand binding assay using recombinant CHO cell membranes expressing human GlyT1; settings: examples marked * tested as fumarate salts, read-out: radioligand binding Kiapp
human GlyT1c transporter, sequence (P48067 whole entry): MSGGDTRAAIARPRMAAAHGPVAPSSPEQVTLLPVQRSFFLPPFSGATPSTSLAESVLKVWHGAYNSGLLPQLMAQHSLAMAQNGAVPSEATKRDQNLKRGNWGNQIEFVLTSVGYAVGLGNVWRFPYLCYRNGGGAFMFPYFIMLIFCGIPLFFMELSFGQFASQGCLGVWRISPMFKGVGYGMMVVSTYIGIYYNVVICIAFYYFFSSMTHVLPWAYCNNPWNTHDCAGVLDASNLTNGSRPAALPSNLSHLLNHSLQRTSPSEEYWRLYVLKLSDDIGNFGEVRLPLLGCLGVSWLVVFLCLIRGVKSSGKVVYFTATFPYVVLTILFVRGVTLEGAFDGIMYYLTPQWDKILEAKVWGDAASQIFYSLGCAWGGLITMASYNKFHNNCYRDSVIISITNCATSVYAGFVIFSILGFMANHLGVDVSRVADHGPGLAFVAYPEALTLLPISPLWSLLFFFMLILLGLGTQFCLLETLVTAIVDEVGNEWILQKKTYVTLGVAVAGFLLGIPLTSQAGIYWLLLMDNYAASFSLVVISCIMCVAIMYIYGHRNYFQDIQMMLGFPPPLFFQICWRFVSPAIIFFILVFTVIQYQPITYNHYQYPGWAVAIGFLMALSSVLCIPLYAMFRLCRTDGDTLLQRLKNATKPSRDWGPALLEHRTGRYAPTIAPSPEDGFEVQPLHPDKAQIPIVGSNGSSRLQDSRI

[1] = Metabolic stability in human liver microsomes; format: in vitro ADME; settings: 0.5 μM test substance, NADPH, 37° C., scaled microsomal clearance, examples marked * tested as fumarate salts
Procedure: Metabolic stability was determined as follows:
0.5 μM test substance was preincubated together with human liver microsomes (0.25 mg of microsomal protein/[…]) in 0.05 M potassium phosphate buffer of pH 7.4 in microtiter plates at 37° C. for 5 min. The reaction was started by adding NADPH (1.0 mM). After 0, 5, 10, 15, 20 and 30 min the reaction was stopped and cooled with twice the amount of quench solution consisting of acetonitrile/methanol 1:1, and containing 0.2 μM carbutamide. The samples were frozen until analyzed. The remaining concentration of undegraded test substance was determined by LC MSMS. The half-life (T1/2) was determined from the gradient of the signal of test substance/unit time plot, al-lowing to calculate the half-life of the test substance, assuming first order kinetics, from the de-crease in the concentration of the compound with time. The microsomal clearance (mClint) was calculated as follows: mClint=((ln(2)/t1/2)/Microsomal Protein Concentration (mg/ml))*1000, leading to the unit of uL/min/mg. The scaled clearance (mClin_scaled) was calculated as mCLint_scaled=m CLint*(Microsomal Yield (mg/kg BW))/1000000*60, leading to the units L/hr/kg. The Microsomal Yield is defined by the specifics of the used microsomes. Calculations were modified from references: Di, The Society for Biomolecular Screening, 2003, 453-462; Obach, DMD, 1999 vol 27. N 11, 1350-1359.

pKi (human GlyT1c transporter)	human mCl [1]	SMILES
≥ 8.00	≦5 L/h/Kg	Cn1cc(S(=O)(=O)NC2CN(c3ccc4c(c3)[C@H](Cc3ccccc3)[C@H](N3CCC3)CO4)C2)nn1 (relative stereo) [Example 6, Cis-N-(1-(3-(azetidin-1-yl)-4-benzylchroman-6-yl)azetidin-3-yl)-1-methyl-1H-1,2,3-triazole-4-sulfonamide]
≥ 6.00	≦5 L/h/Kg	CCCS(=O)(=O)NC1CN(c2ccc3c(c2)[C@H](Cc2ccccc2)[C@H](NC2CCC2)CO3)C1 (relative stereo) [Example 32, Cis-N-(1-(4-benzyl-3-(cyclobutylamino)chroman-6-yl)azetidin-3-yl)propane-1-sulfonamide]
≥ 6.00	≦50 L/h/Kg	CCCS(=O)(=O)NC1CN(c2ccc3c(c2)C(Cc2ccccc2)C(NC)CO3)C1 (single isomer, unassigned) [Example 23, Cis-N-(1-(4-benzyl-3-(methylamino)chroman-6-yl)azetidin-3-yl)propane-1-sulfonamide]
≥ 6.00	≦5 L/h/Kg	CCS(=O)(=O)NC1CN(c2ccc3c(c2)[C@H](Cc2ccccc2)[C@H](N2CCC2)CO3)C1 (relative stereo) [Example 2, Cis-N-(1-(3-(azetidin-1-yl)-4-benzylchroman-6-yl)azetidin-3-yl)ethanesulfonamide]
≥ 7.00	≦5 L/h/Kg	CCCS(=O)(=O)NC1CN(c2cc3c(cc2F)OCC(NC)C3Cc2ccccc2)C1 (single isomer, unassigned) [Example 28, Cis-N-(1-(4-benzyl-7-fluoro-3-(methylamino)chroman-6-yl)azetidin-3-yl)propane-1-sulfonamide]
≥ 8.00	≦5 L/h/Kg	CCCS(=O)(=O)NC1CN(c2ccc3c(c2)C(Cc2ccccc2)C(NC)CO3)C1 (single isomer, unassigned) [Example 22, Cis-N-(1-(4-benzyl-3-(methylamino)chroman-6-yl)azetidin-3-yl)propane-1-sulfonamide]
≥ 7.00	≦5 L/h/Kg	O=S(=O)(CC1CC1)NC1CN(c2ccc3c(c2)[C@H](Cc2ccccc2)[C@H](N2CCC2)CO3)C1 (relative stereo) [Example 4, Cis-N-(1-(3-(azetidin-1-yl)-4-benzylchroman-6-yl)azetidin-3-yl)-1-cyclopropylmethanesulfonamide]
≥ 8.00	≦5 L/h/Kg	CCCS(=O)(=O)NC1CN(c2ccc3c(c2)C(Cc2ccccc2)C(NC)CO3)C1 (racemic) [Example 11, Cis-N-(1-(4-benzyl-3-(methylamino)chroman-6-yl)azetidin-3-yl)propane-1-sulfonamide]
≥ 8.00	≦50 L/h/Kg	CCCS(=O)(=O)NC1CN(c2cc3c(cc2F)OCC(NC)C3Cc2ccccc2)C1 (single isomer, unassigned) [Example 27, Cis-N-(1-(4-benzyl-7-fluoro-3-(methylamino)chroman-6-yl)azetidin-3-yl)propane-1-sulfonamide]
≥ 6.00	≦5 L/h/Kg	CCCS(=O)(=O)NC1CN(c2ccc3c(c2)[C@H](Cc2ccccc2)[C@H](NCC2CC2)CO3)C1 (relative stereo) [Example 31, Cis-N-(1-(4-benzyl-3-((cyclopropylmethyl)amino)chroman-6-yl)azetidin-3-yl)propane-1-sulfonamide]
≥ 7.00	≦50 L/h/Kg	CCCS(=O)(=O)NC1CN(c2ccc3c(c2)[C@H](Cc2ccccc2)[C@H](N(CC)CC)CO3)C1 (relative stereo) [Example 30, Cis-N-(1-(4-benzyl-3-(diethylamino)chroman-6-yl)azetidin-3-yl)propane-1-sulfonamide]
≥ 7.00	≦5 L/h/Kg	CCS(=O)(=O)NC1CN(c2ccc3c(c2)[C@H](Cc2ccccc2)[C@H](NC)CO3)C1 (relative stereo) [Example 12, Cis-N-(1-(-4-benzyl-3-(methylamino)chroman-6-yl)azetidin-3-yl)ethanesulfonamide]
≥ 8.00	≦5 L/h/Kg	Cn1cnc(S(=O)(=O)NC2CN(c3ccc4c(c3)C(Cc3ccccc3)C(N3CCC3)CO4)C2)c1 (stereo not shown) [Example 1, N-[1-[3-(azetidin-1-yl)-4-benzyl-chroman-6-yl]azetidin-3-yl]-1-methyl-imidazole-4-sulfonamide]
≥ 8.00	≦5 L/h/Kg	N[C@@H]1COc2ccc(N3CC(NS(=O)(=O)CC4CC4)C3)cc2[C@@H]1Cc1ccccc1 (relative stereo) [Example 21, Cis-N-(1-(3-amino-4-benzylchroman-6-yl)azetidin-3-yl)-1-cyclopropylmethanesulfonamide]
≥ 6.00	≦50 L/h/Kg	O=S(=O)(NC1CN(c2cc3c(cc2F)OC[C@@H](N2CCC2)[C@H]3Cc2ccccc2)C1)c1cccnn1 (relative stereo) [Example 9, Cis-N-(1-(3-(azetidin-1-yl)-4-benzyl-7-fluorochroman-6-yl)azetidin-3-yl)pyridazine-3-sulfonamide]
≥ 8.00	≦50 L/h/Kg	CNC1COc2ccc(N3CC(NS(=O)(=O)CC4CC4)C3)cc2C1Cc1ccccc1 (single isomer, unassigned) [Example 24, Cis-N-(1-(4-benzyl-3-(methylamino)chroman-6-yl)azetidin-3-yl)-1-cyclopropylmethanesulfonamide]
≥ 8.00	≦5 L/h/Kg	CNC1COc2ccc(N3CC(NS(=O)(=O)CC4CC4)C3)cc2C1Cc1ccccc1 (racemic) [Example 13, Cis-N-(1-(4-benzyl-3-(methylamino)chroman-6-yl)azetidin-3-yl)-1-cyclopropylmethanesulfonamide]
≥ 7.00	≦5 L/h/Kg	O=S(=O)(NC1CN(c2ccc3c(c2)[C@H](Cc2ccccc2)[C@H](N2CCC2)CO3)C1)c1cccnc1F (relative stereo) [Example 10, Cis-N-(1-(3-(azetidin-1-yl)-4-benzylchroman-6-yl)azetidin-3-yl)-2-fluoropyridine-3-sulfonamide]
≥ 7.00	≦5 L/h/Kg	Cn1cc(S(=O)(=O)NC2CN(c3ccc4c(c3)[C@H](Cc3ccccc3)[C@H](N3CCC3)CO4)C2)cn1 (relative stereo) [Example 5, Cis-N-(1-(3-(azetidin-1-yl)-4-benzylchroman-6-yl)azetidin-3-yl)-1-methyl-1H-pyrazole-4-sulfonamide]
≥ 7.00	≦5 L/h/Kg	CCCS(=O)(=O)NC1CN(c2ccc3c(c2)[C@H](Cc2ccccc2)[C@H](N2CCC2)CO3)C1 (relative stereo) [Example 3, Cis-N-(1-(3-(azetidin-1-yl)-4-benzylchroman-6-yl)azetidin-3-yl)propane-1-sulfonamide]
≥ 7.00	≦5 L/h/Kg	CCCN[C@@H]1COc2ccc(N3CC(NS(=O)(=O)CCC)C3)cc2[C@@H]1Cc1ccccc1 (relative stereo) [Example 29, Cis-N-(1-(4-benzyl-3-(propylamino)chroman-6-yl)azetidin-3-yl)propane-1-sulfonamide]
≥ 6.00	≦5 L/h/Kg	CNC1COc2ccc(N3CC(NS(=O)(=O)CC4CC4)C3)cc2C1Cc1ccccc1 (single isomer, unassigned) [Example 25, Cis-N-(1-(4-benzyl-3-(methylamino)chroman-6-yl)azetidin-3-yl)-1-cyclopropylmethanesulfonamide]
≥ 6.00	≦50 L/h/Kg	O=S(=O)(NC1CN(c2cc3c(cc2F)OC[C@@H](N2CCC2)[C@H]3Cc2ccccc2)C1)c1cccnc1F (relative stereo) [Example 8, Cis-N-(1-(3-(azetidin-1-yl)-4-benzyl-7-fluorochroman-6-yl)azetidin-3-yl)-2-fluoropyridine-3-sulfonamide]
